The test system of one series is HBV DNA replication. Kind of series: Inhibition of HBV virus replication (HBV DNA in supernatant, qPCR) in HepG2.2.15 cells. The class given is cell-based. Particulars: Hepatitis B virus, 10 days treatment, supernatant day 11, qPCR. The text has this: (§1) The chromosome of HepG2.2.15 cells integrates a complete HBV genome and stably expresses viral RNA and protein. HepG2.2.15 cells can secrete mature hepatitis B virus particles and HBsAg into culture medium. Virus particles DNA and HBsAg secreted by HepG 2.2.15 cells can be quantified by q-PCR and ELISA, and the effects of compounds on viral replication and HBsAg secretion can be detected.
HepG 2.2.15 cells were inoculated with 8,000 per cell to 96-well cell culture plates in duplicate, and were cultured for 3 days until the cells grew to full-hole. Cells were treated with 4-fold serial dilutions of compounds for 10 days, and were given alternately every other day. The final concentration of DMSO in all pores was 0.5% and DMSO was used as a drug-free control. The supernatant was collected for quantitative detection of HBV DNA on day 11.
Viral genomic DNA was detected by qPCR method, and HBV primers were as follows: • HBV-For-202, […] (SEQ ID NO:1); • HBV-Rev-315, […](SEQ ID NO:2).
The SYBR Premix Ex Taq II-Takara DRR081S kit was used, and 1 μL of cell culture supernatant was used as a template. A standard curve was made using a plasmid containing the HBV genome, and the viral copy number was calculated using the standard curve. Concentration-virus copy number was processed using Graphpad Prism 5 software, and IC50 of Compounds Inhibiting Virus Replication was calculated by Four-parameter Nonlinear Regression Model.
In general terms: In qPCR the cycle at which signal appears reflects the starting amount.

A further series deals with HBsAg secretion. Kind of series: Inhibition of HBsAg secretion (ELISA) in HepG2.2.15 cells. Particulars: Hepatitis B virus, HepG2.2.15, read-out: Hbs Ag IC50. The format is cell-based.
Excerpt: as §1
HepG 2.2.15 cells were inoculated with 8,000 per cell to 96-well cell culture plates in duplicate, and were cultured for 3 days until the cells grew to full-hole. Cells were treated with 4-fold serial dilutions of compounds for 10 days, and were given alternately every other day. The final concentration of DMSO in all pores was 0.5% and DMSO was used as a drug-free control. The supernatant was collected for quantitative detection of HBsAg on day 11.
The level of HBsAg secreted by the compound after treatment is detected by ELISA method, and the method uses a hepatitis B surface antigen diagnostic kit (Shanghai Kehua Biotech Co., Ltd. S10910113). 25 μL of the supernatant to be assayed (PBS was diluted to 75 μL) was added to per well of the ELISA plate, positive control and negative control kit were set. ELISA plate was blocked with a cover paper, and incubated at 37° C. for 60 minutes. The ELISAplate was taken out, the seal was teared off, and 50 μL of enzyme conjugate was added to each well. The ELISA plate was oscillated on the shaker for 10 seconds, blocked with a cover paper and incubated at 37° C. for 30 minutes. The ELISA plate was taken out, the seal was teared off, and the ELISA plate was washed 5 times: each time the liquid in the hole was discarded, the washing liquid was filled into the holes, left to stand for 60 seconds, dried, and the liquid residue was patted on the absorbent paper. Immediately after the end of washing, a freshly prepared mixture of Developer A and Developer B was added to all wells: 100 μL per well. The ELISA plate was oscillated on the shaker for 10 seconds, blocked with a cover paper and incubated at 37° C. for 30 minutes. 50 μL of stop solution was added to all wells. Absorbance was read on the Envision plate reader at 450 nm. Concentration-HBsAg OD450 was processed using Graphpad Prism 5 software, and IC50 of Compounds Inhibiting Virus Replication was calculated by Four-parameter Nonlinear Regression Model.
In general terms: ELISA stands for enzyme-linked immunosorbent assay.

Series [1] is described as follows: Pharmacokinetic experiments in beagle dogs. The class given is in vivo. On the procedure:
Pharmacokinetic experiments of the compounds of the invention in beagle dogs (Body weight 10-12 kg, male, age 10-12 months, 3 per oral group, 3 per intravenous injection group) Test method:
Beagle was administered orally with 2.5 mg/kg or 5 mg/kg of the compound tested or intravenously injected with 1 mg/kg or 2 mg/kg of the compound tested.
After administration, venous blood was collected at time points (0.083, 0.25, 0.5, 1, 2, 4, 6, 8 and 24 hours) and collected in an anticoagulation tube with EDTA-K2. After liquid-liquid extraction, plasma samples were quantitatively analyzed by multiple reaction ion monitoring (MRM) on a triple quadrupole tandem mass spectrometer. Pharmacokinetic parameters were calculated using a noncompartmental method by WinNonLin 6.3 software.

Consider 14 compounds from patent publication US12128044B2, “Fused tricyclic compounds and uses thereof in medicine” (SUNSHINE LAKE PHARMA CO., LTD., priority 2018, dated 2024).

Where only a bound is given, the exact number is not on record here.

As for `COc1cc2c(cc1-c1ccco1)CN(C(C)C)n1cc(C(=O)O)c(=O)cc1-2` [Example 1, 9-(furan-2-yl)-6-isopropyl-10-methoxy-2-oxo-6,7-dihydro-2H-pyrido[2,1-a]phthalazine-3-carb oxylic acid], the half-inhibitory concentration (IC50) with HBV DNA replication was 2.68 nM; in the series with HBsAg secretion, 4.27 nM.
The matching figures for `COc1cc2c(cc1-c1cccs1)CN(C(C)C)n1cc(C(=O)O)c(=O)cc1-2` [Example 2, 6-isopropyl-10-methoxy-2-oxo-9-(thiophen-2-yl)-6,7-dihydro-21H-pyrido[2,1-a]phthalazine-3-carboxylic acid]: 2.06 nM and 1.72 nM.
For `COc1cc2c(cc1-c1nccs1)CN(C(C)C)n1cc(C(=O)O)c(=O)cc1-2` [Example 3, 6-isopropyl-10-methoxy-2-oxo-9-(thiazol-2-yl)-6,7-dihydro-2H-pyrido[2,1-a]phthalazine-3-carboxylic acid], the IC50 amounted to 1.71 nM in the series with HBV DNA replication and 3.26 nM in the series on HBsAg secretion.
Consider `COc1cc2c(cc1-c1cnn(C(C)C)c1)CN(C(C)C)n1cc(C(=O)O)c(=O)cc1-2` [Example 4, 6-isopropyl-9-(1-isopropyl-1H-pyrazol-4-yl)-10-methoxy-2-oxo-6,7-dihydro-2H-pyrido[2,1-a]phthalazine-3-carboxylic acid], for which the IC50 was 3.81 nM in the series on HBV DNA replication and 9.6 nM in the series on HBsAg secretion.
For the compound `COc1cc2c(cc1-c1cnn(C(F)F)c1)CN(C(C)C)n1cc(C(=O)O)c(=O)cc1-2` [Example 5, 9-(1-(difluoromethyl)-1H-pyrazole-4-yl)-6-isopropyl-10-methoxy-2-oxo-6,7-dihydro-2H-pyrido [2,1-a]phthalazine-3-carboxylic acid], in the series with HBV DNA replication, the IC50 was 7.3 nM. Further, the F in series [1] (PO 5 mg/kg vs IV 1 mg/kg) is reported as 76.7%. For the same compound, in series [1] (male, dog, plasma, IV, 1 mg/kg), the AUC(0-inf) is 17400 ng·h/mL, the AUC(0-t) turned out to be 16900 ng·h/mL, the Cmax was found to be 2170 ng/mL and the clearance was found to be 0.955 mL/min/kg. In series [1] (male, dog, plasma, PO, 5 mg/kg), the AUC(0-inf) stood at 66700 ng·h/mL, the AUC(0-t) is 63300 ng·h/mL and the peak level (Cmax) was 8710 ng/mL. In the series with HBsAg secretion, the IC50 was 14.3 nM.
Take `COc1cc2c(cc1-c1cnn(C3CCC(F)(F)CC3)c1)CN(C(C)C)n1cc(C(=O)O)c(=O)cc1-2` [Example 7, 9-(1-(4,4-Difluorocyclohexyl)-1H-pyrazol-4-yl)-6-isopropyl-10-methoxy-2-oxo-6,7-dihydro-2H-pyrido[2,1-a]phthalazine-3-carboxylic acid]: the IC50 amounted to 1.76 nM in the series on HBV DNA replication and 6.73 nM in the series on HBsAg secretion.
As to `COc1cc2c(cc1-c1cnn(C3CC(C)(C)OC(C)(C)C3)c1)CN(C(C)C)n1cc(C(=O)O)c(=O)cc1-2` [Example 8, 6-isopropyl-10-methoxy-2-oxo-9-(1-(2,2,6,6-tetramethyltetrahydro-2H-pyran-4-yl)-1H-pyrazole-4-yl)-6,7-dihydro-2H-pyrido[2,1-a]phthalazine-3-carboxylic acid], the half-inhibitory concentration (IC50) with HBV DNA replication turned out to be 6.26 nM; in the series on HBsAg secretion, 6.03 nM.
Regarding `COc1cc2c(cc1-c1cnn(C(C)C)c1)CN(C(C)(C)C)n1cc(C(=O)O)c(=O)cc1-2` [Example 13, 6-(tert-butyl)-9-(1-isopropyl-1H-pyrazol-4-yl)-10-methoxy-2-oxo-6,7-dihydro-2H-pyrido[2,1-a]phthalazine-3-carboxylic acid], the IC50 with HBV DNA replication came out at 0.7 nM; with HBsAg secretion it was 0.97 nM.
In the case of `COc1cc2c(cc1-c1cnn(C(C)C)c1)CN(C1CC1)n1cc(C(=O)O)c(=O)cc1-2` [Example 14, 6-cyclopropyl-9-(1-isopropyl-1H-pyrazol-4-yl)-10-methoxy-2-oxo-6,7-dihydro-2H-pyrido[2,1-a]phthalazine-3-carboxylic acid], the IC50 with HBV DNA replication and in the series on HBsAg secretion was < 0.24 nM each time.
As for `COc1cc2c(cc1-c1cnn(C(C)C)c1)CN(C1CCC1)n1cc(C(=O)O)c(=O)cc1-2` [Example 15, 6-cyclobutyl-9-(1-isopropyl-1H-pyrazol-4-yl)-10-methoxy-2-oxo-6,7-dihydro-2H-pyrido[2,1-a]phthalazine-3-carboxylic acid], the IC50 with HBV DNA replication was found to be 2.1 nM; in the series with HBsAg secretion it was 1.83 nM.
The matching figures for `COc1cc2c(cc1-c1cnn(C3CC3)c1)CN(C(C)C)n1cc(C(=O)O)c(=O)cc1-2` [Example 16, 9-(1-cyclopropyl-1H-pyrazole-4-yl)-6-isopropyl-10-methoxy-2-oxo-6,7-dihydro-2H-pyrido[2,1-a]phthalazine-3-carboxylic acid]: 2.74 nM and 6.11 nM.
`COc1cc2c(cc1-c1cnn(C3CCC3)c1)CN(C(C)C)n1cc(C(=O)O)c(=O)cc1-2` [Example 17, 9-(1-cyclobutyl-1H-pyrazole-4-yl)-6-isopropyl-10-methoxy-2-oxo-6,7-dihydro-2H-pyrido[2,1-a]phthalazine-3-carboxylic acid]: the IC50 in the series with HBV DNA replication stood at 2.82 nM; with HBsAg secretion, 4.07 nM.
For `COc1cc2c(cc1-c1cnn(C3CCCC3)c1)CN(C(C)C)n1cc(C(=O)O)c(=O)cc1-2` [Example 18, 9-(1-cyclopentyl-1H-pyrazole-4-yl)-6-isopropyl-10-methoxy-2-oxo-6,7-dihydro-2H-pyrido [2,1-a]phthalazine-3-carboxylic acid], the half-maximal inhibitory concentration (IC50) with HBV DNA replication came out at 2.28 nM; with HBsAg secretion it was 3.73 nM.
The matching figures for `COc1cc2c(cc1-c1cnn(C3CCOCC3)c1)CN(C(C)C)n1cc(C(=O)O)c(=O)cc1-2` [Example 19, 6-isopropyl-10-methoxy-2-oxo-9-(1-(tetrahydro-2H-pyran-4-yl)-1H-pyrazole-4-yl)-6,7-dihydro-2H-pyrido[2,1-a]phthalazine-3-carboxylic acid]: 3.98 nM and 7.82 nM.

Usually IC50 stands for the point on the concentration scale where inhibition reaches its midpoint. Usually AUC(0-inf) stands for total exposure, with the tail of the curve extrapolated. Broadly, the AUC(0-t) is exposure summed from dosing to a finite time, without extrapolation to infinity. A high value points to high exposure. Usually Cmax stands for the maximum level reached in the sampled fluid or tissue. The clearance is the rate of elimination divided by the concentration.
